According to patent US11390624B2, “Pyrazolopyridines and triazolopyridines as A2A / A2B inhibitors” (Incyte Corporation, priority 2019, dated 2022):
pEC50, pKi: −log10 of the molar value.

Tests used:
[1] = target: human adenosine A2B receptor (Homo sapiens (Human), UniProt P29275); experiment: Adenosine A2B Receptor Cyclic AMP GS Assay; assay type: cell-based; details: HEK-293 cells, agonist NECA at 12 nM, cAMP accumulation; read-out: A2B—cAMP_EC50
Procedure: Stably transfected HEK-293 cells expressing the human adenosine A2B receptor (Perkin Elmer) were maintained in MEM culture medium with 10% FBS and 100 μg/mL Geneticin (Life Technologies). 18 to 24 hours prior to assay, geneticin was removed from culture. The cisbio cAMP-GS Dynamic kit utilizing the FRET (Fluorescence Resonance Energy Transfer) technology was used to measure cAMP accumulation in the cells. Compounds of the present disclosure at an appropriate concentration were mixed with 10000 cells/well in white 96 well half area plates (Perkin Elmer) for 30 min at room temperature gently shaking. Agonist, NECA (R&D Technologies) at 12 nM was added to each well for 60 min at room temperature gently shaking. Detection reagents, d2-labeled cAMP (acceptor) and anti-cAMP cryptate (donor) were added to each well for 60 min at RT gently shaking. Plates were read on Pherastar (BMG Labtech), fluorescence ratio 665/620 was calculated and EC50 determination was performed by fitting the curve of percent of control versus the log of the compound concentration using GraphPad Prism.

[2] = target: Adenosine A2A receptor (Tag-lite Adenosine A2A labeled cells) (Homo sapiens (Human), UniProt P29274); experiment: A2A Tag-lite HTRF Assay; assay type: binding; details: displacement of Adenosine A2A Receptor Red antagonist fluorescent ligand, 12.5 nM
Sequence of Adenosine A2A receptor (Tag-lite Adenosine A2A labeled cells) (P29274 whole entry): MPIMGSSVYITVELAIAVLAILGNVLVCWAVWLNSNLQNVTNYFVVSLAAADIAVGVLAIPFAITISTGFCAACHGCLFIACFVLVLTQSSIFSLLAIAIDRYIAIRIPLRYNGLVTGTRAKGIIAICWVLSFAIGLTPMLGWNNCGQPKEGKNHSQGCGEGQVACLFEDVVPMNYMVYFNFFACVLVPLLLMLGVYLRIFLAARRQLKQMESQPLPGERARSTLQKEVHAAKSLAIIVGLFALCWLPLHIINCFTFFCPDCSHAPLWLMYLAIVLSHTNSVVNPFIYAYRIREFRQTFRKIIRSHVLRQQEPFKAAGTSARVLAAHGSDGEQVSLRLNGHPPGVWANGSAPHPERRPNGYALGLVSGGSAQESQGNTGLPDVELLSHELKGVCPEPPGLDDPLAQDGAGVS
From the text: The final concentration of DMSO was 1%.

Sequence of human adenosine A2B receptor (P29275 whole entry): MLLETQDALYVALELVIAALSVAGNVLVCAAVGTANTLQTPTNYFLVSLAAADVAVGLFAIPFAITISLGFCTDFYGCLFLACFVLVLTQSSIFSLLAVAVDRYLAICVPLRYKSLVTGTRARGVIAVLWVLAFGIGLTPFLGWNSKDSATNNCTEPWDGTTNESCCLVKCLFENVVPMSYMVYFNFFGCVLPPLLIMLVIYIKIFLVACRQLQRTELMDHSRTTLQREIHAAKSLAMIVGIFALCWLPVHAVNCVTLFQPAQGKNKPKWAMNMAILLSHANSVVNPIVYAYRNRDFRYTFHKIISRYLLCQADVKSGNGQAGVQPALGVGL

SMILES	pEC50 [1]	pKi [2]
CC(C)n1nccc1-c1c(-c2cccc(C#N)c2F)nc(N)c2nn(Cc3ccccn3)nc12 [Example 40, 3-(4-amino-7-(1-isopropyl-1H-pyrazol-5-yl)-2-(pyridin-2-ylmethyl)-2H-[1,2,3]triazolo[4,5-c]pyridin-6-yl)-2-fluorobenzonitrile]	≥ 8.00	≥ 8.00
N#Cc1cccc(-c2nc(N)c3nn(Cc4ccccn4)nc3c2-c2cnco2)c1 [Example 21, 3-(4-amino-7-(oxazol-5-yl)-2-(pyridin-2-ylmethyl)-2H-[1,2,3]triazolo[4,5-c]pyridin-6-yl)benzonitrile]	≥ 8.00	≥ 8.00
Cc1ncoc1-c1c(-c2cccc(C#N)c2)nc(N)c2nn(CCc3ccccn3)nc12 [Example 48, 3-(4-amino-7-(4-methyloxazol-5-yl)-2-(2-(pyridin-2-yl)ethyl)-2H-[1,2,3]triazolo[4,5-c]pyridin-6-yl)benzonitrile]	7.00 to 8.00	≥ 8.00
N#Cc1cccc(-c2nc(N)c3nn(Cc4ccccn4)nc3c2-c2ccc3ncccc3c2)c1 [Example 22, 3-(4-amino-2-(pyridin-2-ylmethyl)-7-(quinolin-6-yl)-2H-[1,2,3]triazolo[4,5-c]pyridin-6-yl)benzonitrile]	≥ 8.00	≥ 8.00
CCn1nccc1-c1c(-c2cccc(C#N)c2)nc(N)c2nn(Cc3cccc(C)n3)cc12 [Example 11, 3-(7-amino-4-(1-ethyl-1H-pyrazol-5-yl)-2-((6-methylpyridin-2-yl)methyl)-2H-pyrazolo[3,4-c]pyridin-5-yl)benzonitrile]	7.00 to 8.00	≥ 8.00
CC(c1ccccn1)n1nc2c(N)nc(-c3cccc(C#N)c3)c(-c3ccncn3)c2n1 (stereo not shown) [Example 47, 3-(4-amino-2-(1-(pyridin-2-yl)ethyl)-7-(pyrimidin-4-yl)-2H-[1,2,3]triazolo[4,5-c]pyridin-6-yl)benzonitrile]	6.00 to 7.00	≥ 8.00
Cn1ccc(Cn2cc3c(N)nc(-c4cccc(C#N)c4)c(-c4ccncn4)c3n2)n1 [Example 4, 3-(4-amino-2-((1-methyl-1H-pyrazol-3-yl)methyl)-7-(pyrimidin-4-yl)-2H-pyrazolo[4,3-c]pyridin-6-yl)benzonitrile]	7.00 to 8.00	≥ 8.00
Cc1ncoc1-c1c(-c2cccc(C#N)c2)nc(N)c2nn(C(C)c3ccccn3)nc12 (stereo not shown) [Example 46, 3-(4-amino-7-(4-methyloxazol-5-yl)-2-(1-(pyridin-2-yl)ethyl)-2H-[1,2,3]triazolo[4,5-c]pyridin-6-yl)benzonitrile]	≥ 8.00	≥ 8.00
CCn1nccc1-c1c(-c2cccc(C#N)c2)nc(N)c2nn(Cc3cccc(C)n3)nc12 [Example 28, 3-(4-amino-7-(1-ethyl-1H-pyrazol-5-yl)-2-((6-methylpyridin-2-yl)methyl)-2H-[1,2,3]triazolo[4,5-c]pyridin-6-yl)benzonitrile]	≥ 8.00	≥ 8.00
N#Cc1cccc(-c2nc(N)c3nn(Cc4ncccc4F)nc3c2-c2ccc3nccnc3c2)c1 [Example 37, 3-(4-amino-2-((3-fluoropyridin-2-yl)methyl)-7-(quinoxalin-6-yl)-2H-[1,2,3]triazolo[4,5-c]pyridin-6-yl)benzonitrile]	7.00 to 8.00	≥ 8.00
Cc1ncoc1-c1c(-c2cccc(C#N)c2F)nc(N)c2nn(CCc3ccccn3)nc12 [Example 49, 3-(4-amino-7-(4-methyloxazol-5-yl)-2-(2-(pyridin-2-yl)ethyl)-2H-[1,2,3]triazolo[4,5-c]pyridin-6-yl)-2-fluorobenzonitrile]	7.00 to 8.00	≥ 8.00
Cn1ccc(Cn2nc3c(N)nc(-c4cccc(C#N)c4)c(-c4ccncn4)c3n2)n1 [Example 44, 3-(4-amino-2-((1-methyl-1H-pyrazol-3-yl)methyl)-7-(pyrimidin-4-yl)-2H-[1,2,3]triazolo[4,5-c]pyridin-6-yl)benzonitrile]	≥ 8.00	≥ 8.00
CC(C)n1nccc1-c1c(-c2cccc(C#N)c2)nc(N)c2nn(Cc3ncccc3F)nc12 [Example 34, 3-(4-amino-2-((3-fluoropyridin-2-yl)methyl)-7-(1-isopropyl-1H-pyrazol-5-yl)-2H-[1,2,3]triazolo[4,5-c]pyridin-6-yl)benzonitrile]	≥ 8.00	≥ 8.00
N#Cc1cccc(-c2nc(N)c3cn(Cc4ncccc4F)nc3c2-c2ccncn2)c1 [Example 3, 3-(4-amino-2-((3-fluoropyridin-2-yl)methyl)-7-(pyrimidin-4-yl)-2H-pyrazolo[4,3-c]pyridin-6-yl)benzonitrile]	7.00 to 8.00	≥ 8.00
N#Cc1cccc(-c2nc(N)c3cn(Cc4ccccc4F)nc3c2-c2ccncn2)c1 [Example 7, 3-(4-amino-2-(2-fluorobenzyl)-7-(pyrimidin-4-yl)-2H-pyrazolo[4,3-c]pyridin-6-yl)benzonitrile]	≥ 8.00	≥ 8.00
N#Cc1cccc(-c2nc(N)c3nn(Cc4ccccn4)nc3c2-c2ccncn2)c1 [Example 16, 3-(4-amino-2-(pyridin-2-ylmethyl)-7-(pyrimidin-4-yl)-2H-[1,2,3]triazolo[4,5-c]pyridin-6-yl)benzonitrile]	≥ 8.00	≥ 8.00
N#Cc1cccc(-c2nc(N)c3nn(Cc4ccccn4)nc3c2-c2ccc3nccnc3c2)c1 [Example 23, 3-(4-amino-2-(pyridin-2-ylmethyl)-7-(quinoxalin-6-yl)-2H-[1,2,3]triazolo[4,5-c]pyridin-6-yl)benzonitrile]	6.00 to 7.00	≥ 8.00
CCn1nccc1-c1c(-c2cccc(C#N)c2)nc(N)c2nn(Cc3ccccn3)nc12 [Example 18, 3-(4-amino-7-(1-ethyl-1H-pyrazol-5-yl)-2-(pyridin-2-ylmethyl)-2H-[1,2,3]triazolo[4,5-c]pyridin-6-yl)benzonitrile]	≥ 8.00	≥ 8.00
Cn1nccc1-c1c(-c2cccc(C#N)c2F)nc(N)c2nn(Cc3ccccn3)nc12 [Example 39, 3-(4-amino-7-(1-methyl-1H-pyrazol-5-yl)-2-(pyridin-2-ylmethyl)-2H-[1,2,3]triazolo[4,5-c]pyridin-6-yl)-2-fluorobenzonitrile]	≥ 8.00	≥ 8.00
Cc1cccc(Cn2nc3c(N)nc(-c4cccc(C#N)c4)c(-c4ocnc4C)c3n2)n1 [Example 29, 3-(4-amino-7-(4-methyloxazol-5-yl)-2-((6-methylpyridin-2-yl)methyl)-2H-[1,2,3]triazolo[4,5-c]pyridin-6-yl)benzonitrile]	≥ 8.00	≥ 8.00
Cc1cccc(Cn2nc3c(N)nc(-c4cccc(C#N)c4)c(-c4ccc(=O)n(C)c4)c3n2)n1 [Example 27, 3-(4-amino-7-(1-methyl-6-oxo-1,6-dihydropyridin-3-yl)-2-((6-methylpyridin-2-yl)methyl)-2H-[1,2,3]triazolo[4,5-c]pyridin-6-yl)benzonitrile]	7.00 to 8.00	≥ 8.00
Cc1ncoc1-c1c(-c2cccc(C#N)c2F)nc(N)c2nn(Cc3ccccn3)nc12 [Example 41, 3-(4-amino-7-(4-methyloxazol-5-yl)-2-(pyridin-2-ylmethyl)-2H-[1,2,3]triazolo[4,5-c]pyridin-6-yl)-2-fluorobenzonitrile]	≥ 8.00	≥ 8.00
Cc1cccc(Cn2cc3c(-c4ccncn4)c(-c4cccc(C#N)c4)nc(N)c3n2)n1 [Example 10, 3-(7-amino-2-((6-methylpyridin-2-yl)methyl)-4-(pyrimidin-4-yl)-2H-pyrazolo[3,4-c]pyridin-5-yl)benzonitrile]	≥ 8.00	≥ 8.00
